{"source": "ChEMBL document CHEMBL1201862", "about": "“PubChem BioAssay data set” (2004)", "key": {"[1]": {"target": "DNA (cytosine-5)-methyltransferase 1 (Homo sapiens, UniProt P26358)", "sequence (P26358 whole entry)": "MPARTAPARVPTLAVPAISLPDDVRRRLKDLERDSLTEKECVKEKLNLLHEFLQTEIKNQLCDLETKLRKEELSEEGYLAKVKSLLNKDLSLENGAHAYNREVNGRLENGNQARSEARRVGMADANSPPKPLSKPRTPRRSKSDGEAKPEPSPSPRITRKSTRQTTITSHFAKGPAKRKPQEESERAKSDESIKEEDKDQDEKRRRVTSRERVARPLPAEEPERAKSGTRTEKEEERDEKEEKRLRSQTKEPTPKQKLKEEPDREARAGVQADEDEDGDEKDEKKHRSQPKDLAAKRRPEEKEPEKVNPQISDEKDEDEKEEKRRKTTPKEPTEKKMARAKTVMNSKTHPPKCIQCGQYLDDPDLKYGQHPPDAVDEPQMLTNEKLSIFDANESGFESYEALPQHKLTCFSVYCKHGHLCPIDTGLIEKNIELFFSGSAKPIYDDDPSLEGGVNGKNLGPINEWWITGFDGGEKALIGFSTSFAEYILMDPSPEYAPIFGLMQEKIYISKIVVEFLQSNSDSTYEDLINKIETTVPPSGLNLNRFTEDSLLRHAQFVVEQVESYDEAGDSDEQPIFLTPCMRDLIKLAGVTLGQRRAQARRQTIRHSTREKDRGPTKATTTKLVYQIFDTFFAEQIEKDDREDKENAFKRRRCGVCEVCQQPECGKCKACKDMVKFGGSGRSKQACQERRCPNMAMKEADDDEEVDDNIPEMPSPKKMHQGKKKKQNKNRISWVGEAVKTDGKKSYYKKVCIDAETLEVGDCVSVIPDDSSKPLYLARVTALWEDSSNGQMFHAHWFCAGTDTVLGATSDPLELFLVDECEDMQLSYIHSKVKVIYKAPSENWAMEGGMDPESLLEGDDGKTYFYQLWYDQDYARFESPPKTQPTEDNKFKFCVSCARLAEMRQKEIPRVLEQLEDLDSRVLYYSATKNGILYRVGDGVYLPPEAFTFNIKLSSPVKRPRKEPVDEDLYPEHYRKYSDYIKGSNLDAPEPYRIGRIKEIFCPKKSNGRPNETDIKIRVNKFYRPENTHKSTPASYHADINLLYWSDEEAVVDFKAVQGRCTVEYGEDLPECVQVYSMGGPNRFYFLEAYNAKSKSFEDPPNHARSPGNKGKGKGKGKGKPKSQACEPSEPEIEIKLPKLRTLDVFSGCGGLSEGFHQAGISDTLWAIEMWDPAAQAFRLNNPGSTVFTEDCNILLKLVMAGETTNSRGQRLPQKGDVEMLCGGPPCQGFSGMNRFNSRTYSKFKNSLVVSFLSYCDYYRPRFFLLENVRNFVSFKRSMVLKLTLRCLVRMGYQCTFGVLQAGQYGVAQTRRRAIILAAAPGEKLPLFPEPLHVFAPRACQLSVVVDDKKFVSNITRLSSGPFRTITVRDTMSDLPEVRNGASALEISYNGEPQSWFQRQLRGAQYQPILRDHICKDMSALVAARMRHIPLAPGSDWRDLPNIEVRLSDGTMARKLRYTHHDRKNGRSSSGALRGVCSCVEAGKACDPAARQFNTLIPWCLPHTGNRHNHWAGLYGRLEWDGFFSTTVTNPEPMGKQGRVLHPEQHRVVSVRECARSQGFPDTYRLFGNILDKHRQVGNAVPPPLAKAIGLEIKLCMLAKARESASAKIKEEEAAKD", "assay": "inhibition of DNA methylation by DNMT1 – biochemical, fluorescent molecular beacon, confirmation (AID 602386)", "assay_type": "functional"}, "Caspase-6": {"target": "Caspase-6 (Homo sapiens, UniProt P55212)", "sequence (P55212 24-179 limits assumed)": "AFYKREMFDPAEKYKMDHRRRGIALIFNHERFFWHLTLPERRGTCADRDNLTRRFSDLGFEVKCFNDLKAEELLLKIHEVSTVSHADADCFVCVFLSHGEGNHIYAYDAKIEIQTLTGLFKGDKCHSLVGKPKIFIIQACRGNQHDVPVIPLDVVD", "sequence (P55212 194-293 limits assumed)": "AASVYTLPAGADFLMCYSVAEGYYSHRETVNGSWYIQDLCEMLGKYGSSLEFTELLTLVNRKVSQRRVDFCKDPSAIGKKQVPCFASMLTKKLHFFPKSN", "assay": "inhibition of CASP6 peptide cleavage – biochemical, VEID-R110 fluorescence, cherry-pick, dose response (AID 720632)"}, "[2]": {"target": "V-type proton ATPase subunit c' (Saccharomyces cerevisiae S288c, UniProt P32842)", "sequence (P32842 whole entry)": "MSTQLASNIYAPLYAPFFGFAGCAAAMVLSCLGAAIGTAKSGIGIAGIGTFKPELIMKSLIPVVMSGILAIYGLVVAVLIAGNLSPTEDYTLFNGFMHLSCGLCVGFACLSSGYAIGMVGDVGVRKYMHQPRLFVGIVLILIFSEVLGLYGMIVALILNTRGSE", "assay": "Dose Response of Small Molecules that Regulate V-ATPase Proton Transport in Yeast using pHLuorin, Cherry Pick 2.", "assay_type": "functional", "settings": "read-out: EC50_MICROM"}, "[3]": {"target": "Mitochondrial peptide methionine sulfoxide reductase (Bos taurus, UniProt P54149)", "sequence (P54149 whole entry)": "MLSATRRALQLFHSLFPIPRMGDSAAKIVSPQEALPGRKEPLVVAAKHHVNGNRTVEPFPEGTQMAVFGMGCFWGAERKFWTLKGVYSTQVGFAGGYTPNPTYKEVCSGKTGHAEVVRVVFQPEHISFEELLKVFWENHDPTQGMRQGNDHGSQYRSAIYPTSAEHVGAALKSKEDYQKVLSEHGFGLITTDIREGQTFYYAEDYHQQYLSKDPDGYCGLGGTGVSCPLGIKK", "assay_type": "functional"}, "[4]": {"target": "Aryl hydrocarbon receptor (Homo sapiens, UniProt P35869)", "sequence (P35869 whole entry)": "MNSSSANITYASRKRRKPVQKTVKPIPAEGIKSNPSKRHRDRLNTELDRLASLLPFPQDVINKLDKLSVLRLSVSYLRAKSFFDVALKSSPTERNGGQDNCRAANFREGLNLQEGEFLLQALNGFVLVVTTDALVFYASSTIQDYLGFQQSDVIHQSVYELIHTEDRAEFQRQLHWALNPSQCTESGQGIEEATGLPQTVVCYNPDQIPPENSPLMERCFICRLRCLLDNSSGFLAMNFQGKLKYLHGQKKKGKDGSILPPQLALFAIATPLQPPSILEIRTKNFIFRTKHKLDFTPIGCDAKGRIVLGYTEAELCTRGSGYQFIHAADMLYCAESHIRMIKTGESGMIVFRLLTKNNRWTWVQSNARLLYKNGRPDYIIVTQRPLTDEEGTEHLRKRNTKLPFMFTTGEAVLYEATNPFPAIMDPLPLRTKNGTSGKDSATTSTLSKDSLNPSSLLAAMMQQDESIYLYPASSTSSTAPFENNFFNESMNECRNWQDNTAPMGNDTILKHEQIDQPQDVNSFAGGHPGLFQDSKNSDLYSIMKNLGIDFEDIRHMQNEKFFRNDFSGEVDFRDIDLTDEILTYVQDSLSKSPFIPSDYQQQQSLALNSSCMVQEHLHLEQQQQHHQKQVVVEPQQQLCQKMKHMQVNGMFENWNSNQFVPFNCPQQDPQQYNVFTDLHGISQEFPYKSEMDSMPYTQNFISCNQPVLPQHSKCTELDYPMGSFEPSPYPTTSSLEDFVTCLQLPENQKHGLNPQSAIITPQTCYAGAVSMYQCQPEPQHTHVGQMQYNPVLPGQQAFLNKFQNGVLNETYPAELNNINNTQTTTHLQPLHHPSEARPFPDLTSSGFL", "settings": "Potency"}}, "note": "The source made the active and inactive calls.", "data": [{"smiles": "O=C(O)CCc1ccc(S(=O)(=O)Nc2cc(C(F)(F)F)ccc2N2CCCC2)cc1", "values": [{"measurement": "IC50", "setting": "[1]", "value": "11.7 µM (active)"}, {"measurement": "AC50", "setting": "Caspase-6", "value": "38.4 µM (active)"}]}, {"smiles": "O=C1C=CC(=Nc2ccc3c(c2)Cc2cc(F)ccc2-3)O1", "values": [{"measurement": "EC50", "setting": "[2]", "value": "7.26 µM (active)"}]}, {"smiles": "N#Cc1c(-n2cccc2/C=N/O)sc2c1CCCC2", "values": [{"measurement": "IC50", "setting": "[3]", "value": "155 µM (inactive)"}]}, {"smiles": "CC(C)N1C(=O)c2ccccc2NS1(=O)=O", "note": "[BENTAZON]", "values": [{"measurement": "AC50", "setting": "[4]", "value": "79.4 µM (inconclusive)"}]}]}
